Measurements as given in US7642239B2, “Inhibition of placenta growth factor (PLGF) mediated metastasis and/or angiogenesis” (Center for Molecular Medicine and Immunology, priority 2005, dated 2010).
Ends that are not written are not given here.

Experiments:
PlGF = target: T1, PlGF (Homo sapiens, UniProt P49763); experiment: Free peptide binding ELISA (FLAG epitope probe), PlGF-coated wells; conditions: peptide with C-terminal FLAG epitope
T1 construct: purchased R&D Systems
T1 sequence (P49763 19-170 isoform P49763-3 limits assumed): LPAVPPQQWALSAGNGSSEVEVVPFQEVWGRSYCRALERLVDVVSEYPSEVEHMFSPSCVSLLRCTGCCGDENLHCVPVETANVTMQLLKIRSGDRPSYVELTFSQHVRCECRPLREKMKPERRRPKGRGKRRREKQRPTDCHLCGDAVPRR
Procedure: Competition assays were done with 2.5 or 25 U/ml heparin (Sigma, St. Louis, Mo.). BP1, 3, 4, and a scrambled version of BP3 (scrBP3) were synthesized with a linker followed by the FLAG epitope ([…] SEQ ID NO:5) at the C-terminus. Thirty minutes after addition of the first reagent, the second reagent was added, followed by another 30 minute incubation. Peptide binding was assessed by probing for the FLAG epitope (Prickett et al., Biotechniques 7:580-9, 1989; Castrucci et al., J. Virol. 66:4647-53, 1992). Absorbance was read at 490 nm.

[1] = test system: MCF-7 human breast cancer cells; assay type: cell-based; conditions: human, 24 h, 2 μM
Procedure: MTT (3-(4,5-dimethylthiazolyl-2)-2,5-diphenyltetrazolium bromide, Sigma) assays were performed under conditions of low serum (1%) to determine PlGF effects on cell viability, the toxicity of the peptides, and their effect on PlGF-mediated breast tumor cell growth (Mosmann, 1983, J Immunol Meth 65:55-63; Modrak et al., 2000, Biochem Biophys Res Commun 268:603-606). Peptide concentration was 1-2 μM, and the concentration of exogenous PlGF was 2 nM. The human breast tumor lines tested were: MDA-MB-231, MDA-MB-468 and MCF-7 (ATCC, Mannasses, Va.). Briefly, 96-well plates were seeded with 5-10×10^4 cells/ml in medium containing 1% fetal bovine serum (FBS). After 24 h, cells were treated with individual peptides at a concentration of 1-2 μM (4 binding peptides), in quadruplicate, and/or rhuPlGF at a 2-nM concentration. After the designated time points, 0.5 mg/ml MTT (5 mg/ml stock diluted 1:10 in RPMI medium with no serum) was added to the wells (Mosmann, 1983). When purple crystals were clearly visible in the cells, and the plate appeared to be fully developed, the reaction was terminated with acid alcohol (0.04M HCl in isopropanol). Absorbance of the dissolved crystals was read at 570 nm. The 24-h time point was chosen because the in vitro effects of PlGF on tumor cell migration were measurable at this time (see wound-healing assay below). These assays were also performed using medium with 10% FBS, with similar results.

## SHRYRLAIQLHASDSSSSCV [BP1]
PlGF
  binding to PlGF (A490): 0.100±0.058
[1]
  viability lowered, peptide alone: 21%
